Measured values as given in US20100159007A1, “PHARMACEUTICAL COMPOSITIONS FOR TRANSMUCOSAL DELIVERY OF A THERAPEUTICALLY ACTIVE AGENT ON THE BASIS OF SUBMICRON PARTICLES” (PHARMAKODEX LIMITED, priority 2006, published 2010).
In brackets after ≈: the same amount, converted by molar mass.

Tests used:
[1] = Solubility of sumatriptan in receiver fluid; assay type: physicochemical; settings: receiver fluid (10% ethanol in PBS), aqueous with cosolvent or surfactant or cyclodextrin; 10% ethanol in PBS (receiver fluid); read-out: maximum solubility
[2] = Stability of sumatriptan in receiver fluid; assay type: physicochemical; settings: 48 hours
Procedure: [table] […] The stability of the raw drug (sumatriptan) in the receiver fluid was determined when stored at 4° C., 25° C., 37° C. and −20° C. over a period of 48 hours.

[3] = Franz cell permeation and mass balance; assay type: in vitro ADME, pig
Procedure: [table] […] A permeation study was performed in order to investigate over what period of time a quantifiable amount of drug could be detected in the receiver fluid. Individually calibrated Franz cells with an average surface area and volume of approximately 0.6 cm^2 and 2 ml respectively were employed to determine the permeation of sumatriptan from the submicron particle formulation. The oral pig mucosa was mounted between two halves of the Franz cell with the mucosal side facing the donor compartment. The receptor compartment 22, having a clamp attachment lug 24, was filled with receiver fluid 27 (10% ethanol in PBS), stirred constantly with a PTFE-coated magnetic follower driven by submersible magnetic stirrer and maintained at 37° C. in a water bath. Approximately 5 mg of each formulation 26 was placed into the donor compartment 21 and the donor compartment was covered with Parafilm® throughout the study. Following the application of the drug formulation, the receiver fluid 27 (200 μl) was removed from the receiver compartment 22 via the sampling arm 25 after, e.g. 1, 2, 4, 6, 24 and 48 hours and analysed via HPLC. Each removed sample was replaced by an equal volume of fresh pre-warmed (37° C.) receiver fluid. At the end of the experiment, a mass balance investigation was performed as follows: A. Surface drug (S), the surface of the oral mucosa containing each formulation was wiped carefully using a sequence of dry and wet cotton buds. Collectively, the cotton buds from each Franz cell were immersed into glass vials containing 5 ml of receiver fluid. The vials were placed in an oscillating shaker and left overnight. An aliquot of 1 ml of the sample was then removed and analysed via HPLC. B. The oral mucosa was placed into a glass vial containing 5 ml of receiver fluid, and placed on a shaker at room temperature overnight. An aliquot of 1 ml of the sample was then removed and analysed via HPLC. C. Franz cell receptor compartment interface (joining section with donor) was swabbed with cotton buds. Collectively, the cotton buds from each Franz cell were immersed into a glass vial containing 5 ml receiver fluid. The vials were then placed in an oscillating shaker and left overnight. An aliquot of 1 ml of the sample was then removed and analysed via HPLC. D. Franz cell donor compartment interface (joining section with receptor) and internal face of the donor compartment was swabbed with cotton buds. Collectively, the cotton buds from each Franz cell were immersed into a glass vial containing 5 ml receiver fluid. The vials were then placed in an oscillating shaker and left overnight. An aliquot of 1 ml of the sample was then removed and analysed via HPLC. This experiment was carried out with the submicron sumatriptan formulation (a remade batch corresponding to Example 1A, batch 25#37/01) (n=6), pure unprocessed sumatriptan (n=3) and blank (n=2), i.e. cells with no formulation applied. […] Test Item 1 is the 40% sumatriptan submicron particle formulation (approximately 5 mg applied to the surface of the mucosa, n=6±SD), Test Item 2 is the unprocessed sumatriptan raw material (approximately 5 mg applied to the surface of the mucosa, n=3±SD) and the Blank is no Test Item applied (n=2).

solubility [1]: 1930 µg/mL (≈ 6.54 mM)
Peak area (stability in receiver fluid) ([2]; 1 μg/ml, 4° C.): 9366
Peak area (stability in receiver fluid) ([2]; 1 μg/ml, 25° C.): 9415
Peak area (stability in receiver fluid) ([2]; 1 μg/ml, 37° C.): 7094
Peak area (stability in receiver fluid) ([2]; 1 μg/ml, −20° C.): 9514
Peak area (stability in receiver fluid) ([2]; 50 μg/ml, 4° C.): 469462
Peak area (stability in receiver fluid) ([2]; 50 μg/ml, 25° C.): 470115
Peak area (stability in receiver fluid) ([2]; 50 μg/ml, 37° C.): 473418
Peak area (stability in receiver fluid) ([2]; 50 μg/ml, −20° C.): 467385
% recovered compared to what was applied ([3]; Donor): 1.49%
Sumatriptan recovered ([3]; Donor): 95.9 µg
% recovered compared to what was applied ([3]; Mucosa): 8.10%
Sumatriptan recovered ([3]; Mucosa): 522 µg
% recovered compared to what was applied ([3]; Plunger): 5.37%
Sumatriptan recovered ([3]; Plunger): 346 µg
% recovered compared to what was applied ([3]; Receptor): 0.28%
Sumatriptan recovered ([3]; Receptor): 18.2 µg
% recovered compared to what was applied ([3]; Surface): 49.33%
Sumatriptan recovered ([3]; Surface): 3180 µg
% recovered compared to what was applied ([3]; Total amount in receiver fluid): 29.86%
Sumatriptan recovered ([3]; Total amount in receiver fluid, approximately 5 mg applied): 1920 µg
recovery ([3]; pig, 5 mg, mass balance, based on weight of formulation applied, read-out: total amount recovered compared to the theoretical recovery, Mean): 94.4%
Compound: CNS(=O)(=O)Cc1ccc2[nH]cc(CCN(C)C)c2c1 [sumatriptan]
